Laboratory results from the NIST ThermoML archive (doi:10.1016/j.jct.2016.04.014).

Assay: xn = mol fraction of the nth substance listed
Conditions: Liquid, Vibrating tube method

CCCCCCCC [octane] + CCCCCCC
mass density [kg/m3]
Conditions	100 kPa	500 kPa	5000 kPa	10000 kPa	15000 kPa	20000 kPa	25000 kPa	30000 kPa	35000 kPa	40000 kPa
293.15 K, x2 = 0.25	698.22	698.6	702.4	706.4	710.2	713.8	717.2	720.4	723.6	726.6
293.15 K, x2 = 0.5002	693.9	694.3	698.1	702.2	706	709.7	713.2	716.5	719.6	722.7
293.15 K, x2 = 0.7502	689	689.4	693.4	697.5	701.4	705.1	708.7	712	715.2	718.4
303.15 K, x2 = 0.25	690.1	690.4	694.5	698.8	702.8	706.6	710.2	713.6	716.9	720.1
303.15 K, x2 = 0.5002	685.6	686	690.2	694.5	698.6	702.5	706.1	709.6	712.9	716.1
303.15 K, x2 = 0.7502	680.7	681	685.3	689.7	693.9	697.8	701.6	705.1	708.5	711.7
313.15 K, x2 = 0.25	681.8	682.2	686.5	691.1	695.4	699.4	703.2	706.8	710.2	713.5
313.15 K, x2 = 0.5002	677.3	677.7	682.1	686.8	691.1	695.2	699.1	702.7	706.2	709.6
313.15 K, x2 = 0.7502	672.2	672.6	677.2	681.9	686.3	690.5	694.4	698.1	701.7	705.1
323.15 K, x2 = 0.25	673.4	673.8	678.5	683.4	687.9	692.1	696.1	699.9	703.6	707
323.15 K, x2 = 0.5002	668.7	669.2	674	678.9	683.6	687.9	692	695.8	699.5	703
323.15 K, x2 = 0.7502	663.5	664	668.9	674	678.7	683.1	687.3	691.2	694.9	698.5
333.15 K, x2 = 0.25	664.9	665.4	670.4	675.6	680.4	684.9	689.2	693.2	696.9	700.6
333.15 K, x2 = 0.5002	660.2	660.6	665.8	671.1	676	680.6	684.9	689	692.8	696.5
333.15 K, x2 = 0.7502	654.8	655.3	660.6	666	671.1	675.8	680.2	684.3	688.2	692
353.15 K, x2 = 0.25	647.5	648.1	653.9	659.9	665.4	670.5	675.2	679.6	683.7	687.7
353.15 K, x2 = 0.5002	642.5	643.1	649.1	655.2	660.8	666	670.8	675.3	679.5	683.6
353.15 K, x2 = 0.7502	636.9	637.4	643.6	649.9	655.7	661	665.9	670.4	674.7	678.9
373.15 K, x2 = 0.25	–	630.3	637.1	644.1	650.3	656	661.2	666.1	670.7	675.1
373.15 K, x2 = 0.5002	–	625	632	639.2	645.6	651.4	656.7	661.7	666.3	670.8
373.15 K, x2 = 0.7502	–	619	626.3	633.6	640.2	646.2	651.7	656.7	661.5	666
